Measured values published in paper PMC11189555, “Aryl amino acetamides prevent Plasmodium falciparum ring development via targeting the lipid-transfer protein PfSTART1” (Nature Communications, 2024).
Values joined by “and” are separate entries in the source; they are usually repeats but may differ in a detail not shown here. Identical values can stand only once.

Columns and labels:
Assay type in all cases: cell-based, Plasmodium falciparum
Hyp1-Nluc parasites = test: Egress, invasion & recovery assay (Nluc bioluminescence, smears); conditions: W-991 60 nM; for parasite morphology at 72 h after 4 h treatment: M-833 2 µM, Giemsa smears; for parasite growth (Nluc bioluminescence) followed 72 h after 4 h treatment: schizonts treated 4 h: M-833 2 µM, ML10 30 nM, E64 10 µM, heparin 100 µg/mL, then washed off
Source text: To measure egress, invasion, and follow-up recovery in the presence of different compounds, we adapted the method developed in[11], using Hyp1-Nluc parasites. A full description is in the Supplementary Information. […]
and compound 4. Note that M-833 was first purchased from MolPort (MolPort -002-267-916) then made in-house at WEHI: the differences observed in EC50s across experiments are attributed to the different batches of M -833. […]
Egress, invasion & recovery assay. To measure egress, invasion and follow up recovery in the presence of different compounds, we adapted the method developed in6, using Hyp1-Nluc parasites7. These parasites episomally express the exported PEXEL protein Hyp1 (PF3D7_0113300) tagged with a NanoLuc luciferase (NLuc) and were selected with 2.5 nM WR99210 (Jacobus). Highly synchronised schizonts were obtained using ML10 (LifeArc) and sorbitol synchronisation, and Percoll-purified (the culture was gently layered over 67% Percoll (Cytiva) in RPMI, and centrifuged for 15 min at 1500 g and the schizont layer was collected and washed). In a 96-well plate, […]
cultures were set up in 4 replicates (3 replicates for the Nluc readout, and one replicate for Giemsa smears) with 1-2% parasitemia, 2% haematocrit, with the following […]
100 μg/ml heparin (Sigma) and 10 μM E64 (Sigma). The schizonts were allowed to egress and invade for 4 h at 37°C. A “background” plate without treatment was left in the fridge during this time. After 4 h, cultures were sorbitol -treated to eliminate schizonts that have not egressed. Smears were made every day for the following 3 days, and 5 μL of the resuspended cultures were taken to measure Nluc activity (to assess parasite’s presence). To measure Nluc activity, 5 μL culture were added to 45 μL NanoGlo reagent (1x Promega lysis buffer and NanoGlo reagent; Promega). The average luminescence of the background cultures was subtracted to the average luminescence of each sample. […]
The viable parasite value was then expressed in log units and parasite reduction ratio was calculated as a decrease in […]

ring-stage 3D7 parasites = test: Stage arrest and recovery assay (SYBR Green flow cytometry, Giemsa smears); conditions: for growth after washout of compound: 48 h treatment, then washout, 6 days post washout (T = 192 h); for ring morphology after 48 h / schizont development at 36 h / impact on already-developed rings or trophozoites: M-833 2 µM, W-991 60 nM from ring stage; for impact on already-developed rings or trophozoites: one cycle; for Parasitemia derived from flow cytometry: replicates 1 and 2
Procedure: Parasites were synchronised using a Percoll density gradient (Cytiva) combined with 5% sorbitol lysis. Ring-stage parasites at 0-4 hours post-invasion at 2% parasitemia and haematocrit were then added to 2 µM M-833, 60 nM W-991 or 0.02% DMSO and incubated at 37 °C with compound replenished every 24 h. After 48 h, samples of M-833 and W-991-treated parasites were washed x 3 in complete RPMI to remove the compound and put back into culture for the remainder of the experiment. For the following two cycles of growth, samples were taken every 24 h to monitor recovery. Upon completion of time points, fixed cells were stained with 2.5 x SYBR Green (Invitrogen) in PBS, washed once in PBS, and analysed on the Attune Flow Cytometer (ThermoFisher Scientific). Giemsa-stained blood smears were visualised and imaged using a Nikon Eclipse E600 microscope.

[1] = tested on: male gametes from mature stage V gametocytes; test: Dual gamete formation assay: male gamete formation (exflagellation); conditions: for inhibition of male gamete formation: 1 µM, 48 h treatment of mature gametocytes; for Dual Gamete Formation Assay: Male at 1 µM, Mean: mean of 4 plates
Procedure: (§1) The compounds were tested in the P. falciparum Dual Gamete Formation Assay (PfDGFA)[84], fully described in the Supplementary Information. […]
(§2) Dual gamete formation assays. The compounds were tested in the P. falciparum Dual Gamete Formation Assay (PfDGFA) 13. Briefly, mature stage V gametocytes were exposed to compounds for 48 h at 37°C in 384 well plates in gametocyte culture medium (RPMI 1640 supplemented with 25 mM HEPES, 50 μg/mL hypoxanthine, 4.8 g/L NaHCO3, 2 mM L-glutamine, 5% pooled type AB serum, 0.5% Albumax II (Gibco)) under a 1% O2, 3% CO2, 96% N2 environment. Gametogenesis was then triggered by the addition of 10 μL ookinete medium (gametocyte culture medium supplemented with 100 μM xanthurenic acid and 0.27 µg/mL Cy3-labelled anti-Pfs25 antibody) to each well at room temperature. Plates were then cooled on a metal block at 4°C for four min to ensure even cooling and then stabilised for a further 4 min at 28°C. At 20 min post-induction, male gametogenesis was recorded in each well by automated brightfield microscopy using a x4 objective lens and 1.5x magnifier (x6 effective magnification). Afterward, plates were incubated in the dark at room temperature for 24 h and then female gametogenesis recorded in each well by automated fluorescence microscopy (anti-Pfs25-positive cells). All experiments were performed in quadruplicate with DMSO and cabamiquine (DDD107498)17 as negative and positive controls respectively. All data was evaluated in comparison to the positive and negative controls to calculate percentage inhibition of male and female gametocytes, and dose response analysis and IC50 calculation performed using GraphPad Prism. […]

[2] = tested on: female gametes from mature stage V gametocytes; test: Dual gamete formation assay: female gamete formation (Pfs25 expression); conditions: for inhibition of female gamete formation: 1 µM, 48 h treatment of mature gametocytes; for Dual Gamete Formation Assay: Female at 1 µM, Mean: mean of 4 plates
Procedure: as §1, §2

| Structure (SMILES) | parasite morphology at 72 h after 4 h treatment (Hyp1-Nluc parasites) | parasite growth (Nluc bioluminescence) followed 72 h after 4 h treatment (Hyp1-Nluc parasites) | growth after washout of compound (ring-stage 3D7 parasites) | ring morphology after 48 h (ring-stage 3D7 parasites) | schizont development at 36 h (ring-stage 3D7 parasites) | impact on already-developed rings or trophozoites (ring-stage 3D7 parasites) | Parasitemia derived from flow cytometry (ring-stage 3D7 parasites; timepoint 0, no washout) | Parasitemia derived from flow cytometry (ring-stage 3D7 parasites; timepoint 0, washout) | Parasitemia derived from flow cytometry (ring-stage 3D7 parasites; timepoint 48, no washout) | Parasitemia derived from flow cytometry (ring-stage 3D7 parasites; timepoint 48, washout) | Parasitemia derived from flow cytometry (ring-stage 3D7 parasites; timepoint 96, no washout) | Parasitemia derived from flow cytometry (ring-stage 3D7 parasites; timepoint 96, washout) | Parasitemia derived from flow cytometry (ring-stage 3D7 parasites; timepoint 144, no washout) | Parasitemia derived from flow cytometry (ring-stage 3D7 parasites; timepoint 144, washout) | Parasitemia derived from flow cytometry (ring-stage 3D7 parasites; timepoint 192, no washout) | Parasitemia derived from flow cytometry (ring-stage 3D7 parasites; timepoint 192, washout) | Parasitemia derived from flow cytometry (ring-stage 3D7 parasites; timepoint 240, no washout) | Parasitemia derived from flow cytometry (ring-stage 3D7 parasites; timepoint 240, washout) | inhibition of male gamete formation [1] | Dual Gamete Formation Assay: Male at 1 µM, Mean [1] | other results |
| --- | --- | --- | --- | --- | --- | --- | --- | --- | --- | --- | --- | --- | --- | --- | --- | --- | --- | --- | --- | --- | --- |
| Cc1cc(Cl)c(S(=O)(=O)N2CCCC2)cc1OCC(=O)NC1CCCCC1 [M-833] | resembled the dysmorphic ring-stage parasites | virtually no recovery after three days | able to resume normal growth | presence of dysmorphic rings | slight developmental delay of schizonts | did not indicate any impact | 2.571 and 1.962 | 1.962 and 2.571 | 11.6017 and 7.415 | 7.415 and 11.6017 | 6.175 and 3.315 | 2.881 and 5.202 | 3.175 and 1.778 | 2.202 and 4.604 | 2.332 and 1.369 | 3.268 and 8.096 | 2.528 and 1.343 | 6.874 and 13.4537 | no inhibition | 0.872 | inhibition of female gamete formation [2]: no inhibition; Dual Gamete Formation Assay: Female at 1 µM, Mean [2]: -1.423 |
| CC(C)(Nc1ccc(Cl)c(S(=O)(=O)N2CCOCC2)c1)C(=O)Nc1ccc(F)c(Cl)c1 [W-991] | resembled the dysmorphic ring-stage parasites | virtually no recovery after three days | able to resume normal growth | presence of dysmorphic rings | slight developmental delay of schizonts | did not indicate any impact | 2.571 and 1.962 | 2.571 and 1.962 | 11.0007 and 8.084 | 11.0007 and 8.084 | 5.782 and 3.338 | 5.455 and 2.599 | 3.388 and 1.894 | 3.848 and 1.766 | 2.379 and 1.388 | 4.263 and 2.036 | 2.587 and 1.356 | 6.983 and 2.934 | no inhibition | -1.328 | reduction in parasitemia vs DMSO (Giemsa-stained smears) (ring-stage 3D7 parasites; 60 h time point): 1.3 fold; inhibition of female gamete formation [2]: no inhibition; Dual Gamete Formation Assay: Female at 1 µM, Mean [2]: -2.932 |
